Assays:
[1] = Maximal bubble pressure
[2] = xn = mol fraction of the nth substance listed; settings: Maximal bubble pressure

CCCCCCCCCC [decane]
[1]
Settings	surface tension liquid-gas [mN/m]
293.15 K	23.83
303.15 K	22.91
313.15 K	21.91
323.15 K	21.07
333.15 K	20.15
343.15 K	19.23

CCCCC [pentane]
[1]
Settings	surface tension liquid-gas [mN/m]
293.15 K	15.94
298.15 K	15.3
305.15 K	14.36
318.15 K	12.6
323.15 K	11.95

CCCCC [pentane] + CCCCCCC
surface tension liquid-gas [mN/m], [2]
Settings	x1 = 0.165	x1 = 0.308	x1 = 0.432	x1 = 0.542	x1 = 0.64	x1 = 0.727	x1 = 0.877	x1 = 0.971
293.15 K	19.62	19.11	18.6	18.15	17.71	17.29	16.65	16.08
298.15 K	18.98	18.5	17.9	17.35	16.9	16.48	15.85	15.29
305.15 K	18.16	17.64	17.13	16.64	16.17	15.74	14.97	14.49
318.15 K	16.91	16.24	15.66	15.1	14.57	14.08	13.23	12.7
323.15 K	16.33	15.55	14.88	14.4	13.93	13.41	12.6	12.12

O [water]
[1]
Settings	surface tension liquid-gas [mN/m]
293.15 K	72.84
298.15 K	72.03
303.15 K	71.24
308.15 K	70.44
313.15 K	69.61
323.15 K	67.96

CCCCCCC [heptane]
[1]
Settings	surface tension liquid-gas [mN/m]
283.15 K	21.11
293.15 K	20.12
303.15 K	19.13
313.15 K	18.11
323.15 K	17.15
